Source: publication PMC5793714, “Functional implications of corticosteroid-binding globulin N-glycosylation” (Journal of Molecular Endocrinology, 2017)

Assays:
rat CBG = biological target: T1, rat CBG (Rattus norvegicus, UniProt P31211); test: saturation binding, dextran-coated charcoal, Scatchard
T1 construct: gene Serpina6; full-length cDNA in pcDNA3, secreted mature N-glycosylated protein from stably transfected CHO-S cells (also Lec1 and Lec2 lines), FPLC semi-purified or concentrated medium; no tag told
T1 sequence (P31211 23-396): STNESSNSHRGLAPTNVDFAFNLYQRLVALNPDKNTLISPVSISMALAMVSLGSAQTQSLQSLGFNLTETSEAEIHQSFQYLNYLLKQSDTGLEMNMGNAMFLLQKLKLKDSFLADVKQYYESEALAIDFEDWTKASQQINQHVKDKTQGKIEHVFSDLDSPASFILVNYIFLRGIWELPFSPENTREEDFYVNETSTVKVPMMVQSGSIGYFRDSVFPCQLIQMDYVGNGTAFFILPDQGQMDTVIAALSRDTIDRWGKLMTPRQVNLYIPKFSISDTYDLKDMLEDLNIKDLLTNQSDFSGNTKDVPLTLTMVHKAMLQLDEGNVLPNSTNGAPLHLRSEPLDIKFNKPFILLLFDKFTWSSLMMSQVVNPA

[1] = biological target: T2, human CBG (corticosteroid-binding globulin, SERPINA6) (Homo sapiens, UniProt P08185); test: as above
T2 construct: full-length cDNA in pRc/CMV, secreted mature N-glycosylated protein from stably transfected CHO-S cells (also Lec1 and Lec2 lines), semi-purified by HiTrap QFF FPLC or concentrated medium; no tag told
T2 sequence (P08185 23-405): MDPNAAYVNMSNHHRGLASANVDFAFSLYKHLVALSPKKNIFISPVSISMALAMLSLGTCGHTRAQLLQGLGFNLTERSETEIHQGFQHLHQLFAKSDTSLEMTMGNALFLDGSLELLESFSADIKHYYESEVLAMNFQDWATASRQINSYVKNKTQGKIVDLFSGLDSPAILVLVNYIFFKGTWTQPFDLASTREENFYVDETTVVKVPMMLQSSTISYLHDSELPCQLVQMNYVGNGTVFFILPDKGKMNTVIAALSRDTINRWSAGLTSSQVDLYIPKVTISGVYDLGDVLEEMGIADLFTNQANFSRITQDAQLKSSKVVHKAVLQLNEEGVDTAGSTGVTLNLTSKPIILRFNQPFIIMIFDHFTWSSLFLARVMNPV

**Q.** For `C[C@]12C[C@H](O)[C@H]3[C@@H](CCC4=CC(=O)CC[C@@]43C)[C@@H]1CC[C@@H]2C(=O)CO` [corticosterone], which Kd (rat CBG) is on record?
**A.** The Kd was 2.1 nM.

**Q.** For `C[C@]12CCC(=O)C=C1CC[C@@H]1[C@@H]2[C@@H](O)C[C@@]2(C)[C@H]1CC[C@]2(O)C(=O)CO` [cortisol], which Kd [1] is on record?
**A.** Its Kd is 1.1 nM.
